From patent US20040019092A1, “Non-peptide somatostatin receptor ligands” (priority 2001, published 2004)

Legend:
[1] = Capillary depletion of brain hemispheres; type: in vivo, rat; settings: n=3 rats
Method: The brain extraction ratio E was calculated from E=BUI*0.62, where 0.62 represents the brain extraction ratio of tritiated water (Pardridge, W. M. et al. “Absence of albumin receptor on brain capillaries in vivo or in vitro” Am. J. Physiol, 1985, 249, E264-E267). In order to quantify a possible sequestration of [^14C]-42 by the brain microvasculature, the brain hemispheres of 3 rats were submitted to capillary depletion (Triguero, D, et al. “Capillary depletion method for quantifying the blood-brain barrier transcytosis of circulating peptides and plasma proteins” J. Neurochem, 1990, 54, 1882-1888). The ^14C-radioactivity observed in the pellet (capillary bed/endothelial cells and pericytes) was compared to the ^14C-radioactivity observed in the supernatant (transcytosis space/interstitial fluid).

[2] = Plasma protein binding, equilibrium dialysis, rat plasma; type: in vitro ADME
Method: In vitro blood distribution and plasma protein binding. For blood distribution studies, fresh, heparinized rat blood (n=3) was spiked with [^14C]-42 to achieve the final concentrations of 5, 50, 500 and 5000 ng/mL. After a 30-minutes incubation at 4° C., 22° C. and 37° C., the samples were centrifuged (1600×g, 10 minutes, at the incubation temperature) to get plasma. The fraction free of 42 in plasma of rat and human was determined by equilibrium dialysis. Phosphate buffer was spiked with [^14C]-42 (50, 500, 5000 ng/mL) and dialyzed versus blank rat and human plasma at 37° C. for 2 hours. The radioactivity was determined in spiked blood samples, in plasma obtained after centrifugation and in both compartments after dialysis.

[3] = system: basal plasma levels of growth hormone, glucagon, insulin and glucose; assay: Endocrine parameters in the Rhesus monkey after subcutaneous administration; type: in vivo
Method: Therefore, they were further investigated in the Rhesus monkey and their activity profile was determined. Using subcutaneous administration, they were characterized in this species, by measuring their effects on the basal plasma levels of growth hormone, glucagon, insulin as well changes in glucose levels.
Animals and blood sampling: Rhesus monkeys, fed on the previous day in the morning with fruits only, were placed, slightly anesthetized with ketamin (Ketalar©, Parke-Davis), in primate chairs and brought to the experimental room. A catheter, consisting of an in-dwelling cannula (Vasocan Braunüle, 20G, B. Braun Melsungen AG, D-Melsungen), an extension line made from PP 800/110/260/100 Portex© tubing and a special adapter between cannula and tubing with a minimal void volume, was placed in a saphenic vein. The total volume of this catheter was approximately 0.7 mL. The distal end was placed through a hole in the wall to the adjacent room in order to allow infusion and blood sampling without being noticed by the animal. The animals were monitored with a video system.
During the entire duration of the experiment an infusion of 5 to 10 mL/h of isotonic saline (NaCl 0.9% Braun, B. Braun Medical AG, CH-Emmenbrücke) containing heparin sodium 80 mg/L (Biochemie GMBH, A-Kundl) was maintained, using a roller pump (Vario-Perpex, Guldener, CH-Zürich). At each sampling time 1.5 mL (twice the void volume of the catheter) was taken in one syringe before collecting the actual blood sample of 2 mL in another syringe. The first 1.5 mL were reinfused immediately after the actual sample had been taken. The sample was mixed with 0.1 mL of a mixture containing EDTA (ethlenediaminetetraacetic acid tetrasodium Fluka, CH-Buchs) and aprotinin (Trasylol©, Bayer) resulting in final concentrations of 1.8 mg/mL and 1000 KIE/mL, respectively. The blood samples were kept on ice and spun in a cooled centrifuge. […]
Determinations: The blood levels of the hormones were determined by radioimmunoassay (RIA) using the appropriate antisera, antibodies, labels and standards, glucose by an enzymatic assay: […]

[4] = system: GHRH stimulated GH secretion; assay: GH secretion, rat in urethan anesthesia, intraduodenal + repeated GHRH stimulation; type: in vivo; settings: urethan
Text: No further treatment followed subcutaneous or intraduodenal application. […] This value has been determined in a total of four independent experiments. […] However, in further studies compound 47 has also been tested by the enteral route of administration after repeated stimulation of the GH secretion by GHRH. […] With most of these selected compounds additional in vivo experiments in other models (intraduodenal application followed by repeated stimulation of the GH secretion by GHRH, oral application by gavage of unanesthetized, estradiol primed rats) were performed. Table 4 summarizes data obtained for the inhibition of the stimulated GH secretion after subcutaneous, intraduodenal and intravenous application and the inhibitory effects obtained for different time points during intravenous infusion of selected hydantoins. […] [table]

N#Cc1cc(S(=O)(=O)N2C(=O)N(CCCCCN)C(=O)C2Cc2c[nH]c3ccccc23)ccc1Oc1ccc(N)cc1 (stereo not drawn) [Compound 42]
fraction taken up by capillaries, of the brain penetration [1]: 5% | binding to plasma proteins [2]: 90% | fraction free in rat plasma ([2]; 50-5000 ng/mL, 37° C.): 10-12%

Cc1cccc2c(CC3C(=O)N(CCCCCN)C(=O)N3S(=O)(=O)c3ccc(Oc4ccc(O)c(Cl)c4)c(C#N)c3)c[nH]c12 (stereo not drawn) [Compound 44]
inhibitory effects on hormone release ([3]; up to 1100 μg/kg): no consistent inhibitory effects | INTRADUODENAL + GHRH ID50 15′ ([4]; ø = no effect at this dose): 13 mg/kg | INTRADUODENAL + GHRH ID50 30′ [4]: 16 mg/kg | INTRADUODENAL + GHRH ID50 60′ [4]: 19 mg/kg

Cc1cccc2c(CC3C(=O)N(CCCCCN)C(=O)N3S(=O)(=O)c3ccc(Oc4ccc(O)cc4)c(CN)c3)c[nH]c12 (stereo not drawn) [Compound 45]
dose levels necessary for inhibition of hormone release, times higher than Octreotride [3]: about 100 times | INTRADUODENAL + GHRH ID50 15′ ([4]; ø = no effect at this dose): 4.663 mg/kg | INTRADUODENAL + GHRH ID50 30′ [4]: 6.52 mg/kg | INTRADUODENAL + GHRH ID50 60′ [4]: 14.047 mg/kg | INTRADUODENAL + GHRH ID50 120′ ([4]; 120′, ø = no effect at this dose): ˜22000 μg/kg
